# Source: PubChem BioAssay (NCI)
#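 1) Cells in 96-well plates. 2) Compound, 48 h, 5 concentrations. 3) Linear interpolation between surrounding doses. 4) Unreached endpoint = highest concentration. GI50: concentration for 50% inhibition of growth. Definition used: TGI = concentration required for complete inhibition of growth.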
# How the values were obtained:
# Assay in all cases: DTP human tumour cell line panel, 48 h
# [1] = system: HCT-116 colon
# [2] = system: K-562 leukemia
# [3] = system: HS 578T breast
# [4] = system: MDA-MB-435
# [5] = system: COLO 205 colon
# [6] = system: HT29 colon
# [7] = system: OVCAR-4 ovarian
# [8] = system: EKVX NSCLC
# [9] = system: M14 melanoma
# [10] = system: SF-295 CNS
# [11] = system: OVCAR-3 ovarian
# [12] = system: U251 CNS
# [13] = system: HOP-92 NSCLC
# [14] = system: A498 renal
# [15] = system: IGROV1 ovarian
# [16] = system: HOP-62 NSCLC
# [17] = system: PC-3 prostate
# [18] = system: NCI-H226 lung
# [19] = system: KM12 colon
# [20] = system: OVCAR-5 ovarian
# [21] = system: NCI-H460 lung
# [22] = system: SK-MEL-2 melanoma
# [23] = system: UACC-257 melanoma
# [24] = system: SK-MEL-28 melanoma
# [25] = system: A549 NSCLC
# [26] = system: T-47D breast
# [27] = system: LOX IMVI melanoma
# [28] = system: HCC-2998 colon
# [29] = system: HCT-15 colon
# [30] = system: NCI-H522 lung
# [31] = system: RPMI-8226 leukemia
# [32] = system: SNB-75 CNS
# [33] = system: NCI-H23 lung
# [34] = system: OVCAR-8 ovarian
# [35] = system: DU-145 prostate
# [36] = system: CAKI-1 renal
# [37] = system: UO-31 renal
# [38] = system: TK-10 renal
# [39] = system: SW-620 colon
# [40] = system: SK-MEL-5 melanoma
# [41] = system: MALME-3M melanoma
# [42] = system: NCI/ADR-RES ovarian
# [43] = system: MDA-MB-231 breast
# [44] = system: 786-0 renal
# [45] = system: SF-539 CNS
# [46] = system: SN12C renal
# [47] = system: ACHN renal
# [48] = system: UACC-62 melanoma
# [49] = system: RXF 393 renal
# [50] = system: HL-60(TB) leukemia
# [51] = system: SK-OV-3 ovarian
# [52] = system: MCF7 breast
# [53] = system: SNB-19 CNS
# [54] = system: SF-268 CNS
structure (smiles),measurement,setting,value
Cc1c(N2C(=O)/C(=C\c3ccccc3O)N=C2c2ccccc2)c(=O)n(-c2ccccc2)n1C,GI50,[1],51.6 µM
same,TGI,[1],> 100 µM
same,GI50,[2],> 100 µM
same,TGI,[2],> 100 µM
same,GI50,[3],27.9 µM
same,TGI,[3],75.3 µM
same,GI50,[4],54 µM
same,TGI,[4],> 100 µM
same,GI50,[5],> 100 µM
same,TGI,[5],> 100 µM
same,GI50,[6],> 100 µM
same,TGI,[6],> 100 µM
same,GI50,[7],> 100 µM
same,TGI,[7],> 100 µM
same,GI50,[8],77 µM
same,TGI,[8],> 100 µM
same,GI50,[9],> 100 µM
same,TGI,[9],> 100 µM
same,GI50,[10],26.2 µM
same,TGI,[10],78.6 µM
same,GI50,[11],> 100 µM
same,TGI,[11],> 100 µM
same,GI50,[12],40.2 µM
same,TGI,[12],> 100 µM
same,GI50,[13],17.6 µM
same,TGI,[13],68.4 µM
same,GI50,[14],> 100 µM
same,TGI,[14],> 100 µM
same,GI50,[15],23.8 µM
same,TGI,[15],> 100 µM
same,GI50,[16],19.4 µM
same,TGI,[16],46.1 µM
same,GI50,[17],> 100 µM
same,TGI,[17],> 100 µM
same,GI50,[18],63.7 µM
same,TGI,[18],> 100 µM
same,GI50,[19],21 µM
same,TGI,[19],> 100 µM
same,GI50,[20],> 100 µM
same,TGI,[20],> 100 µM
same,GI50,[21],> 100 µM
same,TGI,[21],> 100 µM
same,GI50,[22],> 100 µM
same,TGI,[22],> 100 µM
same,GI50,[23],> 100 µM
same,TGI,[23],> 100 µM
same,GI50,[24],> 100 µM
same,TGI,[24],> 100 µM
same,GI50,[25],> 100 µM
same,TGI,[25],> 100 µM
same,GI50,[26],16.3 µM
same,TGI,[26],> 100 µM
same,GI50,[27],62.3 µM
same,TGI,[27],> 100 µM
same,GI50,[28],> 100 µM
same,TGI,[28],> 100 µM
same,GI50,[29],> 100 µM
same,TGI,[29],> 100 µM
same,GI50,[30],64 µM
same,TGI,[30],> 100 µM
same,GI50,[31],> 100 µM
same,TGI,[31],> 100 µM
same,GI50,[32],15.7 µM
same,TGI,[32],40.3 µM
same,GI50,[33],> 100 µM
same,TGI,[33],> 100 µM
same,GI50,[34],63.2 µM
same,TGI,[34],> 100 µM
same,GI50,[35],87.4 µM
same,TGI,[35],> 100 µM
same,GI50,[36],15.6 µM
same,TGI,[36],76.9 µM
same,GI50,[37],> 100 µM
same,TGI,[37],> 100 µM
same,GI50,[38],33.4 µM
same,TGI,[38],> 100 µM
same,GI50,[39],> 100 µM
same,TGI,[39],> 100 µM
same,GI50,[40],62.3 µM
same,TGI,[40],> 100 µM
same,GI50,[41],49.1 µM
same,TGI,[41],> 100 µM
same,GI50,[42],76.3 µM
same,TGI,[42],> 100 µM
same,GI50,[43],41.9 µM
same,TGI,[43],> 100 µM
same,GI50,[44],29.9 µM
same,TGI,[44],> 100 µM
same,GI50,[45],33.5 µM
same,TGI,[45],> 100 µM
same,GI50,[46],> 100 µM
same,TGI,[46],> 100 µM
same,GI50,[47],53.8 µM
same,TGI,[47],> 100 µM
same,GI50,[48],53.9 µM
same,TGI,[48],> 100 µM
same,GI50,[49],53.8 µM
same,TGI,[49],> 100 µM
same,GI50,[50],> 100 µM
same,TGI,[50],> 100 µM
same,GI50,[51],57.3 µM
same,TGI,[51],> 100 µM
same,GI50,[52],3.83 µM
same,TGI,[52],> 100 µM
same,GI50,[53],54.4 µM
same,TGI,[53],> 100 µM
same,GI50,[54],29.8 µM
same,TGI,[54],> 100 µM
